# Laboratory results: patent publication US10899763B2, “Crystalline forms of salts of fused penta-cyclic dihydrodiazepinocarbazolones, and uses thereof” (BEIGENE, LTD., priority 2017, dated 2021)
# Like-named read-outs stand apart in the source and are kept apart here.
# How the values were obtained:
# [1] = Kinetic solubility test in bio-relevant media and H2O; type: physicochemical; conditions: for solubility: thermodynamic from solid; for solubility / dissolution profile in bio-relevant media (FaSSIF and FeSSIF): RT; for dissolution profile in bio-relevant media (FaSSIF and FeSSIF): sampled at 1 hr, 4 hrs and 24 hrs
# Method: About 20 mg of each sample (Forms A, B or C2) was equilibrated in 3.0 mL of three bio-relevant media, i.e., fasted state small intestinal fluid (FaSSIF), Fed State Simulating Intestinal Fluid (FeSSIF) and Simulated Gastric Fluid (SGF), or H2O into each 4-mL plastic vial. The suspensions were mixed via triturating (25 rpm) at RT, with each suspension sampled at the end of 1 hr, 4 hrs and 24 hrs, respectively.
# [2] = Phase I clinical safety study; type: in vivo; conditions: capsules, 2.5-120 mg bid, 25 subjects
# [3] = Solid-state stability test; type: physicochemical; conditions: HPLC
# Method: Each sample (Forms A, B or C2) was exposed to both conditions of 25° C./60% RH and 40° C./75% RH. After one-week storage, all the samples were characterized by XRPD to test any solid form change and by HPLC to check the purity change.
# [4] = Hygroscopicity test (DVS isotherm, XRPD); type: physicochemical; conditions: for Water uptake % at 80% RH, Adsorption / Water uptake % at 80% RH, Desorption: DVS at 25° C.; for Hygroscopicity: concluded from the water uptake from adsorption cycle
# Method: To investigate the solid form stability as a function of humidity, DVS isotherm plot (at 25° C.) and XRPD pattern were collected, see Table 11. The uptake percentage differences between desorption and adsorption are speculated to be related to the replacement of possible residual solvent with moisture.
# [5] = Solid form change on heating (XRPD, VT-XRPD); type: physicochemical
# Method: Associated with the results of TGA/DSC and solution NMR, Form B was confirmed to be an anhydrate.
# To confirm the form change during heating of Form C2, VT-XRPD was conducted under protection of nitrogen.
# [6] = tested on: MDA-MB-231 cells; test: Synthetic lethality, CellTiter-Glo cell viability, MDA-MB-231; type: cell-based; conditions: MDA-MB-231, 7-day exposure, table; read-out: EC50 for growth inhibition
# Method: (§1) MDA-MB-231 cells that is not BRCA gene mutant or other homologous recombination deficient were maintained in DMEM supplemented with fetal bovine serum (10% FBS), 100 units/ml penicillin and 0.1 mg/ml streptomycin. BRCA1-deficient cell line MDA-MB-436 was maintained in RPMI-1640 supplemented with 10% FBS, 100 units/ml penicillin and 0.1 mg/ml streptomycin. Both two cell lines were kept at 95% humidity and 5% CO2 in a 37° C. incubator.
# (§2) The number of tumor cells seeded per well of a 96-well plate was optimized for each cell line to ensure logarithmic growth over the 7 days treatment period. Cells were left to attach for 16 hours and then treated with specific concentrations of test compounds. Following a 7-day exposure to the compound, the growth-inhibitory activity of compounds was determined using CellTiter-Glo luminescent cell viability assay (Promega). Luminescent signal was measured using PHERAstar FS reader (BMG Labtech). Cell viability was expressed as relative to mock treatment control. EC50 values for growth inhibition were calculated by fitting dose-dependent data to the four-parameter logistic model using XLfit software.
# [7] = tested on: MDA-MB-436 (BRCA1 Deficient); test: Synthetic lethality, CellTiter-Glo cell viability, MDA-MB-436; type: cell-based, human; conditions: 7-day exposure, table, read-out: EC50 for growth inhibition
# Method: as §1, §2
# [8] = tested on: intracellular PARP activity in HeLa cells; test: Intracellular target inhibition: cellular PAR formation in hydrogen peroxide treated HeLa cells; type: cell-based; conditions: read-out: IC50 (nM) in PARylation assay
# Method: The assay was performed as follows:
# Cells were plated into a 96-well plate with clear bottom and black wall at a density of 5000 cells per well (100 μL). […] In the following day, H2O2 solution in PBS (final concentration 200 μM) was added and the plate was kept at 37° C. for 5 minutes. Then the medium was gently removed by plate inversion, and the cells were fixed by ice-cold MeOH at −20° C. for 20 minutes. […] After removal of solution and repeated wash with PBS, the PAR polymer level was estimated by ArrayScan VTI (ThermoFisher). Percent inhibition was determined on the basis of the residual enzyme activity in the presence of increasing PARP inhibitor concentration. IC50 values were calculated by fitting dose-dependent data to the four-parameter logistic model using XLfit software.
# [9] = FaSSIF, read-out: solubility in FaSSIF
# [10] = FeSSIF, read-out: solubility in FeSSIF
compound,measurement,setting,value
C[C@]12CCCN1CC1=NNC(=O)c3cc(F)cc4[nH]c2c1c34 [Crystalline Sesqui-Hydrate of Compound 1],solubility,[1]; [9],< 100 µg/mL
same,solubility,[1]; [10],1000 µg/mL
same,clinical safety and tolerability,[2],safe and well tolerated
C[C@]12CCCN1CC1=NNC(=O)c3cc(F)cc4[nH]c2c1c34 [Form A],Purity of initial(%),[3]; 25° C./60% RH (7 days),100.1%
same,Purity of initial(%),[3]; 40° C./75% RH (7 days),100.1%
same,dissolution profile in bio-relevant media (FaSSIF and FeSSIF),[1],"good solubility was observed in FaSSIF and FeSSIF at the first time point, but the values went down after equilibrated for a longer time"
same,dissolution profile in bio-relevant media (FaSSIF and FeSSIF),[1]; listed as phosphate salt of Compound 1,"higher solubility at the first time point, but the values went down after equilibrated for a longer time"
same,"Water uptake % at 80% RH, Adsorption",[4],1.9%
same,"Water uptake % at 80% RH, Desorption",[4],2.1%
same,Hygroscopicity,[4],Hygroscopic
same,form change after heating and cooling at ambient conditions (XRPD),[5]; heated to 170° C.,No form change
C[C@]12CCCN1CC1=NNC(=O)c3cc(F)cc4[nH]c2c1c34.O=C(O)/C=C\C(=O)O [Form B],Purity of initial(%),[3]; 25° C./60% RH (7 days),100.2%
same,Purity of initial(%),[3]; 40° C./75% RH (7 days),100.1%
same,dissolution profile in bio-relevant media (FaSSIF and FeSSIF),[1],Steady dissolution rate
same,dissolution profile in bio-relevant media (FaSSIF and FeSSIF),[1]; listed as maleate salt of Compound 1,steady dissolution profiles
same,solubility,[1]; [9],~200 µg/mL
same,solubility,[1]; [10],~500 µg/mL
same,physical stability of the solid suspended in the media,[1]; up to 24 hours,physically stable
same,"Water uptake % at 80% RH, Adsorption",[4],0.7%
same,"Water uptake % at 80% RH, Desorption",[4],2.4%
same,Hygroscopicity,[4],Slightly hygroscopic
same,form change after heating and cooling at ambient conditions (XRPD),[5]; heated to 150° C.,No form change
C[C@]12CCCN1CC1=NNC(=O)c3cc(F)cc4[nH]c2c1c34.O=C(O)/C=C/C(=O)O [Form C2],Purity of initial(%),[3]; 25° C./60% RH (7 days),100.2%
same,Purity of initial(%),[3]; 40° C./75% RH (7 days),100.0%
same,dissolution profile in bio-relevant media (FaSSIF and FeSSIF),[1],"good solubility was observed in FaSSIF and FeSSIF at the first time point, but the values went down after equilibrated for a longer time"
same,dissolution profile in bio-relevant media (FaSSIF and FeSSIF),[1]; listed as fumarate salt of Compound 1,"higher solubility at the first time point, but the values went down after equilibrated for a longer time"
same,"Water uptake % at 80% RH, Adsorption",[4],0.2%
same,"Water uptake % at 80% RH, Desorption",[4],0.3%
same,Hygroscopicity,[4],Slightly hygroscopic
same,physical stability at ambient conditions,[5]; ambient conditions,good physical stability
same,form change during heating (VT-XRPD),[5]; heating to 140° C. and cooling back to 30° C. with N2 flow,a new form named as Form C3 was observed
C[C@]12CCCN1CC1=NNC(=O)c3cc(F)cc4[nH]c2c1c34.O=C(O)/C=C/C(=O)O [Form C3],time to convert back to Form C2 after exposure to ambient conditions,[5]; ~25° C./70% RH,≤ 1 h
O=C(c1cc(Cc2n[nH]c(=O)c3ccccc23)ccc1F)N1CCN(C(=O)C2CC2)CC1 [Olaparib],EC50,[6],~5000 nM
same,EC50,[7],21 ± 7 nM
C[C@]1(c2nc3c(C(N)=O)cccc3[nH]2)CCCN1 [Veliparib],IC50,[8],2.66 nM
same,EC50,[6],> 10000 nM
same,EC50,[7],820 ± 300 nM
